# Laboratory results published in ChEMBL document CHEMBL1201862, “PubChem BioAssay data set” (2004).
# Activity calls are given as the source filed them.
# Legend:
# [1] = microbe, parasite or virus in culture; assay type: functional; settings: Mycobacterium tuberculosis
# [2] = HEp-2 cell cytotoxicity, dose response, cytotoxicity control for RSV inhibitor project, HTS (AID 2410); assay type: functional; settings: human respiratory syncytial virus
# [3] = molecular target: T1, Corticotropin-releasing factor receptor 2/Corticotropin-releasing factor-binding protein (Homo sapiens, UniProt P24387+Q13324); assay: activators of CRF receptor 2 with binding protein – uHTS hits, confirmation (AID 602473); assay type: functional; settings: read-out: EC50_Mean
# T1 sequence (Q13324 whole entry): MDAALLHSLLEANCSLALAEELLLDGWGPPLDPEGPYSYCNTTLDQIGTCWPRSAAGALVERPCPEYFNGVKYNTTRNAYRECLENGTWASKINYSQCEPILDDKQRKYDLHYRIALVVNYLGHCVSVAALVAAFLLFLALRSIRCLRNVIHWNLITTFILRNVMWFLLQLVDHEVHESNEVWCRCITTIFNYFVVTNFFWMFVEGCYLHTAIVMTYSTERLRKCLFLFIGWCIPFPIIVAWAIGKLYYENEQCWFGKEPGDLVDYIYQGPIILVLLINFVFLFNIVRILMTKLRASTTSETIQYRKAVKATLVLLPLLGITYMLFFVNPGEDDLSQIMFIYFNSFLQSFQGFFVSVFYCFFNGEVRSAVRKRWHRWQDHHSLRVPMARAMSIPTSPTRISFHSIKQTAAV
# T1 sequence (P24387 whole entry): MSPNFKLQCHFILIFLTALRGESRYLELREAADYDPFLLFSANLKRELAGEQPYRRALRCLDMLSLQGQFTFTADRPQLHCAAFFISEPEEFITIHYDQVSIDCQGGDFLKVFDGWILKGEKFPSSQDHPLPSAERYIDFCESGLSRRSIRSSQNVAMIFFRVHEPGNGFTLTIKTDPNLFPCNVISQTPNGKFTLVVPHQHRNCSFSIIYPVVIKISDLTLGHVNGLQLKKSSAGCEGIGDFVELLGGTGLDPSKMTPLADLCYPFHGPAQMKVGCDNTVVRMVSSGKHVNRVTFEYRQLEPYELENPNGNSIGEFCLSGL
# Protein RecA = molecular target: T2, Protein RecA (Mycobacterium tuberculosis, UniProt P9WHJ3); assay: Fluorescence Cell-Free Homogeneous Dose Retest to Identify Inhibitors of RecA-Intein Splicing Activity. [Related pubchem assays (depositor defined):AID2097, AID2223, AID489010, AID492950]; assay type: functional
# T2 sequence (P9WHJ3 whole entry): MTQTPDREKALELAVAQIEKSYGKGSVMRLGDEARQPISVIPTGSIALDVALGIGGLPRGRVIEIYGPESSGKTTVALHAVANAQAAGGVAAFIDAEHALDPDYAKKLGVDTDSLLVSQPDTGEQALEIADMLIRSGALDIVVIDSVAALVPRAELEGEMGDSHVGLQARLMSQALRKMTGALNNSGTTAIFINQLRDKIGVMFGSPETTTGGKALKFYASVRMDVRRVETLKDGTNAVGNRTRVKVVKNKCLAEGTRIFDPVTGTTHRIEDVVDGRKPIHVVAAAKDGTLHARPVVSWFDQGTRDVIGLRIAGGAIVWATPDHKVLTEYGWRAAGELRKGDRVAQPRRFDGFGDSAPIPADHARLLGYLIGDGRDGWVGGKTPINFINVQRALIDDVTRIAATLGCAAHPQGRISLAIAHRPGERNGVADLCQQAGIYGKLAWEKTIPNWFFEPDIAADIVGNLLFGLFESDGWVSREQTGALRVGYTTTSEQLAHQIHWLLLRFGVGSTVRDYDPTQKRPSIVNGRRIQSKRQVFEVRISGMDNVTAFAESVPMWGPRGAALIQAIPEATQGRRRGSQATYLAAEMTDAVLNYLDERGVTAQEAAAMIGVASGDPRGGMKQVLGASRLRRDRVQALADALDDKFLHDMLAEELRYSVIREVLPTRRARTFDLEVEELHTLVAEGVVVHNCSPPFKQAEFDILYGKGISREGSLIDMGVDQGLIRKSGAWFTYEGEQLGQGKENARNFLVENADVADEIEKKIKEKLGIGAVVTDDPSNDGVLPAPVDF
# [4] = molecular target: T3, Heat shock factor protein 1 (Mus musculus, UniProt P38532); assay: HSF1 potentiators in luciferase reporter cells, confirmation, cell-based, NIH3T3, luminescence, dose retest (AID 435004); assay type: functional;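 note: stress induced by proteasome inhibitor MG132 added 30 min after compound; luciferase reporter driven by HSF1 response element in NIH3T3 cells; actives raise luminescence as potentiators of the MG132 stress response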
# T3 sequence (P38532 whole entry): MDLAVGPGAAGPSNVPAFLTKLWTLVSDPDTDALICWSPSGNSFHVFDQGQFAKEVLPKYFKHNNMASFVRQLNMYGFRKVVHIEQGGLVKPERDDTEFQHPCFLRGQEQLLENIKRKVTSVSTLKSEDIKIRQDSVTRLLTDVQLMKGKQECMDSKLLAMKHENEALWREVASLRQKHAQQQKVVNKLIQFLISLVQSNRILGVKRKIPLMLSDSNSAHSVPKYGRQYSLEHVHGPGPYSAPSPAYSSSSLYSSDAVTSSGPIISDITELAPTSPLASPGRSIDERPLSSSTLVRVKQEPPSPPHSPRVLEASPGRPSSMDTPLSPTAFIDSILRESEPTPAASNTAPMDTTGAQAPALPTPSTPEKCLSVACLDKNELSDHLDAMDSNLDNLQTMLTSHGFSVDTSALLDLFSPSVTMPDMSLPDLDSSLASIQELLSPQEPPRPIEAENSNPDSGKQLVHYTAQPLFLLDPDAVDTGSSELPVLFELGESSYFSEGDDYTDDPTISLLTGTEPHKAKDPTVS
# INS1 = assay: beta cell apoptosis inhibitors, cytokine rescue, dose response, luminescence, retest (AID 449756); assay type: functional, cell-based; settings: Rattus norvegicus;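 note: cell death triggered by IL-1 beta plus TNF-alpha plus IFN-gamma mixture; protective hits raise ATP signal compared with cytokine alone wells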
# [5] = molecular target: T4, Replicative DNA helicase DnaB (Mycobacterium tuberculosis, UniProt P9WMR3); assay: DnaB intein splicing inhibitors, dose response, biochemical, cell-free fluorescence (AID 449749); assay type: functional
# T4 sequence (P9WMR3 whole entry): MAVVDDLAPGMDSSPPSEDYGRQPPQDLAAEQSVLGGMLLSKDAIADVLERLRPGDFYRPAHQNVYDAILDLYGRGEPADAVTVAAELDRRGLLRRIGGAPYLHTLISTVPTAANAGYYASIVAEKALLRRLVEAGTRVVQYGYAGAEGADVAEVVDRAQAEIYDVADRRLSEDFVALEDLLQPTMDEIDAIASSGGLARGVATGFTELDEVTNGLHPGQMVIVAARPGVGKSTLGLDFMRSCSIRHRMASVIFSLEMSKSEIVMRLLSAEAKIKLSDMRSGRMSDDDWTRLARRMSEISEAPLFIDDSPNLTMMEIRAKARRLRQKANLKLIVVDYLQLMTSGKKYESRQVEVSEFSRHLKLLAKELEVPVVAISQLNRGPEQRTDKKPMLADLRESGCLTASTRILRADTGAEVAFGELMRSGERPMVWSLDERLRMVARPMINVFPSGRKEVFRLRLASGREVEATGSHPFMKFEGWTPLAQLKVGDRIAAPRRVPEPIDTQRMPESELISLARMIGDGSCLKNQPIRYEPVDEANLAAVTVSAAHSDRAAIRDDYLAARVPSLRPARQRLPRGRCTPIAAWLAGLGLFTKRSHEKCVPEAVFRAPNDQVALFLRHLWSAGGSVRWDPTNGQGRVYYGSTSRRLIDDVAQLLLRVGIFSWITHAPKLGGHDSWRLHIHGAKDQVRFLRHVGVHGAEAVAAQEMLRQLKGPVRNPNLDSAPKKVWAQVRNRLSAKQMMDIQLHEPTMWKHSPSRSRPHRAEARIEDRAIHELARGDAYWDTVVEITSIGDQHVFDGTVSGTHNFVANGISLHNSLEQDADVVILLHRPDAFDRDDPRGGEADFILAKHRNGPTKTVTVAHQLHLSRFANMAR
# [6] = NIH-3T3 fibroblast cytotoxicity, dose response, cytotoxicity control, cell-based, fluorescence, Alamar Blue, secondary assay (AID 2327); assay type: functional;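 note: NIH-3T3 mouse fibroblasts cultured with fluconazole at 8 µg/mL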
# [7] = C. albicans growth with fluconazole, confirmation, fluorescence, retest (AID 2467); assay type: functional, cell-based
# [8] = molecular target: T5, Rac GTPase-activating protein 1 (Homo sapiens, UniProt Q9H0H5); assay: MgcRacGAP GTPase-activating activity inhibitors, confirmation, biochemical, ADP Hunter fluorescence, primary and confirmatory (AID 624330); assay type: functional
# T5 sequence (Q9H0H5 whole entry): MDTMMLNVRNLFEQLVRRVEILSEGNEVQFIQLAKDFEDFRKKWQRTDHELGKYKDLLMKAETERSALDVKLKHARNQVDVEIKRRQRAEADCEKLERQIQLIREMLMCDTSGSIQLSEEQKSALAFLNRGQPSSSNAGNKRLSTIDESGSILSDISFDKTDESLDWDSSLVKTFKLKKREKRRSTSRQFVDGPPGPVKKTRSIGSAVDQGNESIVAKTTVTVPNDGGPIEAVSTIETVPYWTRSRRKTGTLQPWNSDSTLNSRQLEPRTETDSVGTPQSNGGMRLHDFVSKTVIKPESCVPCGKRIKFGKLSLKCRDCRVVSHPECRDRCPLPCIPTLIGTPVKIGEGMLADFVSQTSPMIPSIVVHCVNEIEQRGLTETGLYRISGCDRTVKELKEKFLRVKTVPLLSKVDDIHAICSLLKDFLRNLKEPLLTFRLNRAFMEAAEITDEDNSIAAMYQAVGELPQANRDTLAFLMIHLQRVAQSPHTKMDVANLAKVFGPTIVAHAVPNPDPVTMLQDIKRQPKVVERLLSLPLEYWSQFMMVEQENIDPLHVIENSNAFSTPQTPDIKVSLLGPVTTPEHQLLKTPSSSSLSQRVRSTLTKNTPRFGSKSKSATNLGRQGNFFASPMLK
# [9] = inhibitors of intracellular T. cruzi replication, confirmation, NIH3T3 host cells, beta-gal luminescence (AID 2044); assay type: functional, cell-based;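 note: intracellular parasites grown in NIH/3T3 mouse fibroblasts as host cells; luminescent beta-galactosidase reporter signal from transgenic T. cruzi replicating inside host cells; inhibitors lower the luminescence signal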
# [10] = Luminescence Cell-Based Dose Retest to Confirm Inhibitors of Cancer Stem Cells. [Related pubchem assays (depositor defined):AID2717, AID2721]; assay type: functional; settings: Homo sapiens
# [11] = inhibitors of SNCA 5'UTR-driven reporter translation, confirmation, H4 neuroglioma cells, luminescence (AID 1988); assay type: functional, cell-based
# [12] = Luminescence Cell-Based Dose Response HTS to Identify Inhibitors of 5'UTR Stem-Loop Driven Prion Protein mRNA Translation in H4 Neuroglioblastoma Cells. [Related pubchem assays: 1827 (Project Summary), 1813 (Primary HTS)]; assay type: functional
# [13] = cytotoxicity toward NIH3T3 fibroblasts, dose response, counter-screen, cell-based, ATP luminescence, mouse fibroblasts (AID 2010); assay type: functional;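 note: cells exposed to compound for about 90 hours before reading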
# [14] = inhibitors of firefly luciferase expression or activity, dose response, H4 neuroglioma cells, luminescence (AID 1990); assay type: functional, cell-based
# [15] = molecular target: Luciferin 4-monooxygenase (Photinus pyralis, UniProt P08659); assay: firefly luciferase enzyme inhibitors, dose response, biochemical, luminescence (AID 1891)
# Luciferin 4-monooxygenase, sequence (P08659 whole entry): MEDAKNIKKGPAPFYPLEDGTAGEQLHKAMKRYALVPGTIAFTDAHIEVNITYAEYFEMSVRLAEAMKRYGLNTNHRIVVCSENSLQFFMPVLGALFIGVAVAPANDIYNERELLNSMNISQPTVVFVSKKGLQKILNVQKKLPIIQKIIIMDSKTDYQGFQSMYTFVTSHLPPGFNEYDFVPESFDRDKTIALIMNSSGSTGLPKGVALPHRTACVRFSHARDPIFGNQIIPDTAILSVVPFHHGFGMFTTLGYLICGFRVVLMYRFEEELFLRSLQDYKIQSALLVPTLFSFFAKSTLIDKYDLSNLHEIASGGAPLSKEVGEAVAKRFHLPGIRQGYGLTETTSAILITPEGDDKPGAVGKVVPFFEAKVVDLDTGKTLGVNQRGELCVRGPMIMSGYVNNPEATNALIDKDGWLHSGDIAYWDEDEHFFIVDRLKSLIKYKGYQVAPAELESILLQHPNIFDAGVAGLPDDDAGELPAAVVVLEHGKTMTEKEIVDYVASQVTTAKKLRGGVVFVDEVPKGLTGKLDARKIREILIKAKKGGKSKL
# [16] = Luminescence Cell-Based Dose Confirmation HTS to Identify Inhibitors of Platelet Dense Granule Release. [Related pubchem assays: 1663 (Primary HTS), 1678 (Summary of Project)]; assay type: functional
smiles,measurement,setting,value
CC1(C)CC(=O)C2=C(C1)N=C(Nc1nc3ccccc3o1)NC2c1ccccn1 (stereo unspecified),CC50,[1],> 40 µM (active)
Cc1[nH]c2ccccc2c1N=Nc1ccccc1F,CC50,[2],18 µM (active)
c1coc(CNc2c3c(nc4ncnn24)CCC3)c1,CC50,[2],40.5 µM (active)
CN(C)c1nc(NCc2ccccc2)nc(N/N=C/c2ccc3c(c2)OCO3)n1,CC50,[1],> 40 µM (active)
O=C1C=C(c2ccccc2)C(c2ccccc2)C1O (stereo unspecified),EC50,[3],> 53 µM (inactive)
Cc1ccccc1C(=O)NC(=S)Nc1sc2c(c1C#N)CCC(C)C2 (stereo unspecified),CC50,[2],36.8 µM (active)
O=C(c1ccco1)c1coc2c1cc(O)c1ccccc12,EC50,Protein RecA,48.7 µM (active)
same,EC50,[4],65.4 µM (active)
same,AC50,INS1,27 µM (active)
same,AC50,[5],16.2 µM (active)
Oc1c(/C=N/Cc2ccc(F)cc2)[nH]c2ccc(Br)c(Cl)c12,EC50,Protein RecA,2.44 µM (active)
same,CC50,[2],29.1 µM (active)
same,AC50,[5],61.8 µM (active)
CN=C(S)NNC(=O)c1ccc(N(C)C)cc1,CC50,[2],> 50 µM (active)
Fc1ccc2c(c1)C(c1ccncc1)=NNC(c1cccnc1)=N2,EC50,[6],> 160 µM (inactive)
same,EC50,[7],2.26 µM (active)
CCOc1ccc(-n2c(SCc3cc(=O)oc4cc(C)c(C(C)C)cc34)nnc2-c2cccnc2)cc1,CC50,[2],17.5 µM (active)
O=C(Oc1ccccc1-c1nnco1)c1ccc(Cl)cc1,CC50,[1],21.8 µM (active)
COc1ccc(-c2oc3cccnc3c2C#CCO)cc1,CC50,[2],> 50 µM (active)
CCc1ccccc1N(CC)C(=O)C1CCN(c2ncnc3c2nc2n3CCCCC2)CC1,CC50,[2],17.2 µM (active)
O=S(=O)(c1ccccc1)N1CCCC(c2nc(O)c3nnn(Cc4ccccc4Br)c3n2)C1 (stereo unspecified),CC50,[2],18.2 µM (active)
Cc1nc2ccccc2cc1OCc1ccccc1,EC50,[6],> 160 µM (inactive)
same,EC50,[7],3.26 µM (active)
O=C1/C(=C/c2ccc(O)cc2)SC(=S)N1Cc1cccnc1,EC50,[3],12.9 µM (active)
CCn1nc(C)c(C(=O)Nc2cc(Oc3cc(C)cc(C)c3)cc([N+](=O)[O-])c2)c1C,CC50,[1],22.7 µM (active)
COC(=O)c1ccc(CSc2nc3ccccc3[nH]2)o1,CC50,[2],> 50 µM (active)
Cn1c(=O)c(C(=O)COC(=O)c2cc(C(F)(F)F)nc3c(C(F)(F)F)cccc23)c(N)n(CC2CC2)c1=O,CC50,[1],> 40 µM (active)
CCN(CC)c1ccc(/N=C/c2ccccc2[N+](=O)[O-])cc1,IC50,[8],30.5 µM (active)
same,AC50,INS1,33.2 µM (active)
CCOc1ccc(NC(=O)CCC(=O)N/N=C/c2ccc3c(c2)OCO3)cc1,EC50,[6],> 150 µM (inactive)
same,EC50,[7],> 38 µM (not active)
Cc1ccc(-n2nc(C)c3c(C)c(CCC(=O)Nc4ccc(CN5CCCC5)cc4)c(C)nc32)cc1,EC50,[9],1.76 µM (active)
same,AC50,[10],5.7 µM (active)
same,EC50,[11],8.22 µM (active)
same,EC50,[12],> 120 µM (not active)
same,EC50,[13],> 60 µM (not active)
same,CC50,[1],8.7 µM (active)
same,EC50,[14],9.39 µM (active)
CC1=[N+]([O-])C(C)(C)N(O)C1(C)C,EC50,[15],> 112 µM (not active)
same,EC50,[3],> 53 µM (inactive)
same,EC50,[16],> 112 µM (not active)
